In US12077503B2, “Substituted cyclic amides and their use as herbicides” (FMC CORPORATION, priority 2015, dated 2024):

Experiments:
Test in all cases: Test C preemergence
Assay type in all cases: in vivo
[1] = test system: Galium (catchweed bedstraw, Galium aparine); conditions: for Plant response rating, Galium: scale 0 to 100, 0 no effect, 100 complete control
Method in brief: (§1)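 Greenhouse test: seeds in a loam and sand blend treated preemergence, or seedlings at the 1- to 4-leaf stage (2 to 18 cm) in a peat, vermiculite and limestone mix treated postemergence, with test chemicals in a surfactant-containing non-phytotoxic solvent. Scored by eye at 13 to 15 d relative to controls, 0 (no effect) to 100 (complete control).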

[2] = test system: barnyardgrass (Echinochloa crus-galli); conditions: for Plant response rating, Barnyardgrass: scale 0 to 100, 0 no effect, 100 complete control
Method in brief: as §1

[3] = test system: blackgrass (Alopecurus myosuroides); conditions: for Plant response rating, Blackgrass: scale 0 to 100, 0 no effect, 100 complete control
Method in brief: as §1

corn (Zea mays) = conditions: for Plant response rating, Corn: scale 0 to 100, 0 no effect, 100 complete control
Method in brief: as §1

[4] = test system: crabgrass, large (large crabgrass, Digitaria sanguinalis); conditions: for Plant response rating, Crabgrass, Large: scale 0 to 100, 0 no effect, 100 complete control
Method in brief: as §1

[5] = test system: foxtail, giant (giant foxtail, Setaria faberii); conditions: for Plant response rating, Foxtail, Giant: scale 0 to 100, 0 no effect, 100 complete control
Method in brief: as §1

[6] = test system: johnsongrass (Sorghum halepense); conditions: for Plant response rating, Johnsongrass: scale 0 to 100, 0 no effect, 100 complete control
Method in brief: as §1

[7] = test system: lambsquarters (Chenopodium album); conditions: for Plant response rating, Lambsquarters: scale 0 to 100, 0 no effect, 100 complete control
Method in brief: as §1

[8] = test system: morningglory (Ipomoea coccinea); conditions: for Plant response rating, Morningglory: scale 0 to 100, 0 no effect, 100 complete control
Method in brief: as §1

[9] = test system: nutsedge, yellow (yellow nutsedge, Cyperus esculentus); conditions: for Plant response rating, Nutsedge, Yellow: scale 0 to 100, 0 no effect, 100 complete control
Method in brief: as §1

[10] = test system: oilseed rape (Brassica napus); conditions: for Plant response rating, Oilseed Rape: scale 0 to 100, 0 no effect, 100 complete control
Method in brief: as §1

[11] = test system: ragweed (common ragweed, Ambrosia elatior); conditions: for Plant response rating, Ragweed: scale 0 to 100, 0 no effect, 100 complete control
Method in brief: as §1

[12] = test system: ryegrass, Italian (Italian ryegrass, Lolium multiflorum); conditions: for Plant response rating, Ryegrass, Italian: scale 0 to 100, 0 no effect, 100 complete control
Method in brief: as §1

soybean (Glycine max) = conditions: for Plant response rating, Soybean: scale 0 to 100, 0 no effect, 100 complete control
Method in brief: as §1

[13] = test system: velvetleaf (Abutilon theophrasti); conditions: for Plant response rating, Velvetleaf: scale 0 to 100, 0 no effect, 100 complete control
Method in brief: as §1

[14] = test system: waterhemp (common waterhemp, Amaranthus rudis); conditions: for Plant response rating, Waterhemp: scale 0 to 100, 0 no effect, 100 complete control
Method in brief: as §1

[15] = test system: wheat (winter wheat, Triticum aestivum); conditions: for Plant response rating, Wheat: scale 0 to 100, 0 no effect, 100 complete control
Method in brief: as §1

[16] = 31 g ai/ha, 0 is no effect, 100 is complete control

CN1CC(c2ccc(F)c(C(F)(F)F)c2)C(C(=O)Nc2cccc(F)c2F)C1=O (centres unmarked) [Compound 613]
Plant response rating (scale of 0 to 100), Galium [1, 16]: 90 | Plant response rating, Galium ([1]; 62 g ai/ha): 90 | Plant response rating, Galium ([1]; 125 g ai/ha): 90 | Plant response rating, Galium ([1]; 250 g ai/ha): 90 | Plant response rating (scale of 0 to 100), Barnyardgrass [2, 16]: 90 | Plant response rating, Barnyardgrass ([2]; 62 g ai/ha): 95 | Plant response rating, Barnyardgrass ([2]; 125 g ai/ha): 95 | Plant response rating, Barnyardgrass ([2]; 250 g ai/ha): 98 | Plant response rating (scale of 0 to 100), Blackgrass [3, 16]: 85 | Plant response rating, Blackgrass ([3]; 62 g ai/ha): 85 | Plant response rating, Blackgrass ([3]; 125 g ai/ha): 95 | Plant response rating, Blackgrass ([3]; 250 g ai/ha): 95 | Plant response rating (scale of 0 to 100), Corn (corn (Zea mays); [16]): 40 | Plant response rating, Corn (corn (Zea mays); 62 g ai/ha): 55 | Plant response rating, Corn (corn (Zea mays); 125 g ai/ha): 65 | Plant response rating, Corn (corn (Zea mays); 250 g ai/ha): 85 | Plant response rating (scale of 0 to 100), Crabgrass, Large [4, 16]: 95 | Plant response rating, Crabgrass, Large ([4]; 62 g ai/ha): 95 | Plant response rating, Crabgrass, Large ([4]; 125 g ai/ha): 95 | Plant response rating, Crabgrass, Large ([4]; 250 g ai/ha): 98 | Plant response rating (scale of 0 to 100), Foxtail, Giant [5, 16]: 95 | Plant response rating, Foxtail, Giant ([5]; 62 g ai/ha): 95 | Plant response rating, Foxtail, Giant ([5]; 125 g ai/ha): 95 | Plant response rating, Foxtail, Giant ([5]; 250 g ai/ha): 98 | Plant response rating (scale of 0 to 100), Johnsongrass [6, 16]: 75 | Plant response rating, Johnsongrass ([6]; 62 g ai/ha): 85 | Plant response rating, Johnsongrass ([6]; 125 g ai/ha): 90 | Plant response rating, Johnsongrass ([6]; 250 g ai/ha): 90 | Plant response rating (scale of 0 to 100), Lambsquarters [7, 16]: 25 | Plant response rating, Lambsquarters ([7]; 62 g ai/ha): 60 | Plant response rating, Lambsquarters ([7]; 125 g ai/ha): 50 | Plant response rating, Lambsquarters ([7]; 250 g ai/ha): 75 | Plant response rating (scale of 0 to 100), Morningglory [8, 16]: 40 | Plant response rating, Morningglory ([8]; 62 g ai/ha): 40 | Plant response rating, Morningglory ([8]; 125 g ai/ha): 55 | Plant response rating, Morningglory ([8]; 250 g ai/ha): 50 | Plant response rating (scale of 0 to 100), Nutsedge, Yellow [9, 16]: 0 | Plant response rating, Nutsedge, Yellow ([9]; 62 g ai/ha): 0 | Plant response rating, Nutsedge, Yellow ([9]; 125 g ai/ha): 10 | Plant response rating, Nutsedge, Yellow ([9]; 250 g ai/ha): 20 | Plant response rating (scale of 0 to 100), Oilseed Rape [10, 16]: 15 | Plant response rating, Oilseed Rape ([10]; 62 g ai/ha): 70 | Plant response rating, Oilseed Rape ([10]; 125 g ai/ha): 90 | Plant response rating, Oilseed Rape ([10]; 250 g ai/ha): 90 | Plant response rating (scale of 0 to 100), Ragweed [11, 16]: 25 | Plant response rating, Ragweed ([11]; 62 g ai/ha): 25 | Plant response rating, Ragweed ([11]; 125 g ai/ha): 40 | Plant response rating, Ragweed ([11]; 250 g ai/ha): 65 | Plant response rating (scale of 0 to 100), Ryegrass, Italian [12, 16]: 10 | Plant response rating, Ryegrass, Italian ([12]; 62 g ai/ha): 25 | Plant response rating, Ryegrass, Italian ([12]; 125 g ai/ha): 75 | Plant response rating, Ryegrass, Italian ([12]; 250 g ai/ha): 95 | Plant response rating (scale of 0 to 100), Soybean (soybean (Glycine max); [16]): 0 | Plant response rating, Soybean (soybean (Glycine max); 62 g ai/ha): 0 | Plant response rating, Soybean (soybean (Glycine max); 125 g ai/ha): 0 | Plant response rating, Soybean (soybean (Glycine max); 250 g ai/ha): 0 | Plant response rating (scale of 0 to 100), Velvetleaf [13, 16]: 30 | Plant response rating, Velvetleaf ([13]; 62 g ai/ha): 40 | Plant response rating, Velvetleaf ([13]; 125 g ai/ha): 40 | Plant response rating, Velvetleaf ([13]; 250 g ai/ha): 70 | Plant response rating (scale of 0 to 100), Waterhemp [14, 16]: 70 | Plant response rating, Waterhemp ([14]; 62 g ai/ha): 75 | Plant response rating, Waterhemp ([14]; 125 g ai/ha): 85 | Plant response rating, Waterhemp ([14]; 250 g ai/ha): 90 | Plant response rating (scale of 0 to 100), Wheat [15, 16]: 25 | Plant response rating, Wheat ([15]; 62 g ai/ha): 45 | Plant response rating, Wheat ([15]; 125 g ai/ha): 65 | Plant response rating, Wheat ([15]; 250 g ai/ha): 70
